According to patent publication US12351559B2 (Biohaven Therapeutics Ltd., priority 2014, dated 2025):

Molecular target: T1, Kv7.2/7.3 (Homo sapiens, UniProt O43525+O43526)
T1 construct: host or cells: HEK cells, tetracycline-inducible expression
Assay: Kv7.2/7.3 activation assay, QPatch planar patch-clamp, single concentration screen
Format: cell-based
Design: key: <1.2-fold increase over baseline (−); +/−: as a range from <1.2-fold increase over baseline (−) up to >6-fold increase over baseline (+++); as a range from <1.2-fold increase over baseline (−) up to >6-fold increase over baseline (+++); as a range from <1.2-fold increase over baseline (−) up to >6-fold increase over baseline (+++); >6-fold increase over baseline (+++)
Conditions: Kv7.2/Kv7.3 co-expressing HEK cells, compound 3 μM, steady-state current at end of 2 s pulse to −30 mV
Experimental: The ability of compounds to potentiate K-currents in Kv7.2/7.3 containing HEK cells was assessed using planar patch-clamp on the QPatch automated screening platform.
Cell Line: The hKv7.2/7.3 cell line was obtained from Chantest (Cleveland, OH 44128) cat. #CT6147. These HEK cells will express the Kv7.2/7.3 ion channels when induced.
Cell Culture: Cells were maintained in a media containing DMEM/F12; 50/50 (GIBCO cat. #11330), 10% Fetal Bovine Serum (FBS) (GIBCO cat. #26140), 100 units/mL Penicillin-Streptomycin (GIBCO cat. #15140), 0.005 mg/mL Blasticidin (INVIVOGEN cat. #ant-bl-1), 0.5 mg/mL Geneticin (GIBCO cat. #10131), 0.1 mg/ml Zeocin (GIBCO cat. #R25001). Cells used in the electrophysiology assay were maintained in a media without Blasticidin, Geneticin and Zeocin for 2 days and channel expression was induced by adding tetracycline (BIOLINE cat. #BIO-87030) at a final concentration of 1 mg/mL. Cells were grown in T-175 flask to ˜75% confluency. Currents were recorded 24 hours after channel induction.
Compound Plates: Test compounds were prepared by performing serial dilutions on a Biomek NX^P (BECKMAN COULTER). Final dilutions were made in external recording solution with a final DMSO concentration of 0.1% DMSO. For single concentration screens each plate had 10 μM retigabine as a positive control and 0.1% DMSO as a negative control.
Electrophysiology: On the day of the experiment cells were washed with Hank's Balanced Salt Solution (HBBS) (GIBCO cat. #14175) and harvested with Tryple (GIBCO cat. #12604). Cells were then centrifuged at 2000 rpm for 5 minutes and resuspended in CHO-S-SFM (GIBCO cat. #12052) at ˜3×10^6 cells/mL. Cells were stirred for 30 minutes before experiments were started. External recording solution contained (in mM): NaCl (145), KCl (4), CaCl2 (2), MgCl2 (1), HEPES (10) and Glucose (10); pH was adjusted to 7.4 with NaOH and the osmolarity was adjusted to 300-305 mOsM with sucrose if necessary. Internal solution contained (in mM): KCl (125), KF (10), EGTA (5), Na2ATP (5), MgCl2 (3.2), HEPES (5); pH was adjusted to 7.2 with KOH and the osmolarity was adjusted to 298-302 mOsM with sucrose.
Potassium channel activity was measured on the QPatch HTX (Sophion Bioscience) using QPlates with 48-wells/plate. Each cell was taken as an independent experiment and only one compound was tested per well. Potassium channel activity was elicited by holding at −80 mV and stepping to −30 mV for 2 s followed by a 100 ms pulse to −120 mV.
Single concentration screen: Baseline conditions were obtained by recording 5 sweeps in the external solution only, this was repeated for three applications of the external solution. […] The steady-state current at the end of the 2 s pulse to −30 mV was measured to determine the fold increase from baseline.

Kv7.2/7.3 Activity: increase in current over baseline | SMILES
+ | CC(C)[C@H](C)C(=O)Nc1nc2ccc(C#N)cc2n1C1CCC1 [Example 6, (S)-N-(6-cyano-1-cyclobutyl-1H-benzo[d]imidazol-2-yl)-2,3-dimethylbutanamide]
+ | CC(C)(C)CC(=O)Nc1nc2ccc(CC(C)(C)O)c(F)c2n1C1CCC1 [Example 114, N-(1-cyclobutyl-7-fluoro-6-(2-hydroxy-2-methylpropyl)-1H-benzo[d]imidazol-2-yl)-3,3-dimethylbutanamide]
+/− | Cc1cc2nc(NC(=O)C[C@](C)(O)c3ccc(F)cc3)n(C3CCC3)c2cc1C#N [Example 125, (S)-N-(6-cyano-1-cyclobutyl-5-methyl-1H-benzo[d]imidazol-2-yl)-3-(4-fluorophenyl)-3-hydroxybutanamide]
++ | CCOC(=O)Cc1ccc2nc(NC(=O)CC(C)(C)C)n(-c3ccc(F)cc3)c2c1F [Example 112, ethyl 2-(2-(3,3-dimethylbutanamido)-7-fluoro-1-(4-fluorophenyl)-1H-benzo[d]imidazol-6-yl)acetate]
+ | CC1(C)C[C@@H]1C(=O)Nc1nc2ccc(C(F)(F)F)cc2n1C1CCC1 [Example 37, (S)-N-(1-cyclobutyl-6-(trifluoromethyl)-1H-benzo[d]imidazol-2-yl)-2,2-dimethylcyclopropane-1-carboxamide]
++ | CC1(C)CCC[C@@H](CC(=O)Nc2nc3ccc(C(C)(C)O)cc3n2C2CCC2)O1 [Example 83, (S)-N-(1-cyclobutyl-6-(2-hydroxypropan-2-yl)-1H-benzo[d]imidazol-2-yl)-2-(6,6-dimethyltetrahydro-2H-pyran-2-yl)acetamide]
+/− | Cc1cc2nc(NC(=O)C[C@@](C)(O)c3ccccc3)n(C3CCC3)c2cc1C#N [Example 124, (R)-N-(6-cyano-1-cyclobutyl-5-methyl-1H-benzo[d]imidazol-2-yl)-3-hydroxy-3-phenylbutanamide]
+/− | COC(C)(C)CC(=O)Nc1nc2ccc(C#N)cc2n1C1CCC1 [Example 12, N-(6-cyano-1-cyclobutyl-1H-benzo[d]imidazol-2-yl)-3-methoxy-3-methylbutanamide]
++ | C[C@H](C(=O)Nc1nc2ccc(C#N)cc2n1C1CCC1)C(C)(C)C [Example 23, (S)-N-(6-cyano-1-cyclobutyl-1H-benzo[d]imidazol-2-yl)-2,3,3-trimethylbutanamide]
+ | CC(C)(O)Cc1ccc2nc(NC(=O)[C@H]3CC3(C)C)n(C3CCC3)c2c1F [Example 113, (S)-N-(1-cyclobutyl-7-fluoro-6-(2-hydroxy-2-methylpropyl)-1H-benzo[d]imidazol-2-yl)-2,2-dimethylcyclopropane-1-carboxamide]
++ | CC(C)(C)CC(=O)Nc1nc2ccc(C(F)F)cc2n1C1CCC1 [Example 66, N-(1-cyclobutyl-6-(difluoromethyl)-1H-benzo[d]imidazol-2-yl)-3,3-dimethylbutanamide]
++ | CC(C)(C)CC(=O)Nc1nc2ccc(Br)cc2n1C1CCC1 [Example 63, N-(6-bromo-1-cyclobutyl-1H-benzo[d]imidazol-2-yl)-3,3-dimethylbutanamide]
+ | CC(C)(C)CC(=O)Nc1nc2ccccc2n1-c1ccccc1 [Example 2, 3,3-dimethyl-N-(1-phenyl-1H-benzo[d]imidazol-2-yl)butanamide]
++ | CC(O)c1ccc2nc(NC(=O)[C@@H](C)C(C)C)n(C3CCC3)c2c1 (stereo partly drawn) [Example 56, (2S)-N-(1-cyclobutyl-6-(1-hydroxyethyl)-1H-benzo[d]imidazol-2-yl)-2,3-dimethylbutanamide]

Further lines, the compound ahead of its results:

SMILES | Kv7.2/7.3 Activity: increase in current over baseline
CC(C)c1ccc2nc(NC(=O)[C@@H](C)C(C)C)n(C3CCC3)c2c1 [Example 65, (S)—N-(1-cyclobutyl-6-isopropyl-1H-benzo[d]imidazol-2-yl)-2,3-dimethylbutanamide] | +
C[C@](O)(C(=O)Nc1nc2ccc(C(F)(F)F)cc2n1C1CCC1)C(F)(F)F [Example 42, (S)-N-(1-cyclobutyl-6-(trifluoromethyl)-1H-benzo[d]imidazol-2-yl)-3,3,3-trifluoro-2-hydroxy-2-methylpropanamide] | +/−
CC(C)(C)CC(=O)Nc1nc2ccc(CC(C)(C)O)c(F)c2n1-c1ccc(F)cc1 [Example 116, N-(7-fluoro-1-(4-fluorophenyl)-6-(2-hydroxy-2-methylpropyl)-1H-benzo[d]imidazol-2-yl)-3,3-dimethylbutanamide] | +
C[C@@](O)(CC(=O)Nc1nc2ccc(Cl)cc2n1-c1ccc(F)cc1)c1ccccc1 [Example 108, (R)-N-(6-chloro-1-(4-fluorophenyl)-1H-benzo[d]imidazol-2-yl)-3-hydroxy-3-phenylbutanamide] | +/−
CCC(O)(CC)c1ccc2nc(NC(=O)C3CC34CC4)n(C3CCC3)c2c1 (stereo not drawn) [Example 106, N-(1-cyclobutyl-6-(3-hydroxypentan-3-yl)-1H-benzo[d]imidazol-2-yl)spiro[2.2]pentane-1-carboxamide] | +/−
Cc1cc2nc(NC(=O)CC(C)(C)O)n(C3CCC3)c2cc1C#N [Example 130, N-(6-cyano-1-cyclobutyl-5-methyl-1H-benzo[d]imidazol-2-yl)-3-hydroxy-3-methylbutanamide] | +/−
N#Cc1ccc2nc(NC(=O)C[C@H](O)c3ccccc3)n(C3CCC3)c2c1 [Example 26, (S)-N-(6-cyano-1-cyclobutyl-1H-benzo[d]imidazol-2-yl)-3-hydroxy-3-phenylpropanamide] | +/−
CC(C)[C@H](C)C(=O)Nc1nc2ccc(CO)cc2n1C1CCC1 [Example 52, (S)-N-(1-cyclobutyl-6-(hydroxymethyl)-1H-benzo[d]imidazol-2-yl)-2,3-dimethylbutanamide] | +/−
N#Cc1ccc2nc(NC(=O)CC3(O)CCCC3)n(C3CCC3)c2c1 [Example 81, N-(6-cyano-1-cyclobutyl-1H-benzo[d]imidazol-2-yl)-2-(1-hydroxycyclopentyl)acetamide] | +
CC(C)(O)c1ccc2nc(NC(=O)C3CCC(F)(F)C3)n(C3CCC3)c2c1 (stereo not drawn) [Example 102, N-(1-cyclobutyl-6-(2-hydroxypropan-2-yl)-1H-benzo[d]imidazol-2-yl)-3,3-difluorocyclopentane-1-carboxamide] | +/−
Cc1cc2nc(NC(=O)C[C@@](C)(O)c3ccccc3)n(C(C)(C)C)c2cc1C#N [Example 120, (R)-N-(1-(tert-butyl)-6-cyano-5-methyl-1H-benzo[d]imidazol-2-yl)-3-hydroxy-3-phenylbutanamide] | +
CC(C)(O)CC(=O)Nc1nc2ccc(C#N)cc2n1C1CCC1 [Example 8, N-(6-cyano-1-cyclobutyl-1H-benzo[d]imidazol-2-yl)-3-hydroxy-3-methylbutanamide] | +

Same assay, conditions: Kv7.2/Kv7.3 co-expressing HEK cells, compound @ 1 μM

Kv7.2/7.3 Activity: increase in current over baseline | SMILES
+(@ 1 μM) | CC(C)(C)CC(=O)Nc1nc2ccc(C(C)(C)O)cc2n1-c1ccc(F)cc1 [Example 104, N-(1-(4-fluorophenyl)-6-(2-hydroxypropan-2-yl)-1H-benzo[d]imidazol-2-yl)-3,3-dimethylbutanamide]
